# Test results taken from patent US11976062B2, “Benzisoxazole compound” (OSAKA UNIVERSITY, priority 2018, dated 2024).
# Legend:
# [1] = system: α-SMA expression induced by TGFβ1 in dermal fibroblasts; experiment: Fibrosis inhibition evaluation 1: western blotting of α-SMA in dermal fibroblasts; format: cell-based, mice; conditions: compound 011 0.1, 1, 10 μM (especially 10 μM); Pyr 2 10 μM; TGFβ1 10 ng/ml, 48 hours
# Experimental: The expression of α-smooth muscle actin (α-SMA) in fibroblasts was evaluated by western blotting. Dermal fibroblasts were isolated from 1 to 3-day-old mice, and 2.5×10^5 cells were seeded in a 12-well plate. After 24 hours, the medium was replaced with a medium free of fetal bovine serum, and the cells were cultured for another 24 hours. Thereafter, 10 ng/ml of transforming growth factor β1 (TGFβ1) was added, and the cells were cultured for 48 hours. At the same time as TGFβ1 was added, a test compound (compound 011) of a predetermined concentration (0.1 μM, 1 μM, 10 μM) and 10 μM of Pyr 2 or DMSO (solvent control) were also added. […] The cultured cells were dissolved in a lysis buffer (140 mM NaCl, 20 mM Tris-HCl pH 7.8, 1% Triton-X100, 0.05% sodium deoxycholate, 0.1% SDS, 2 mM EDTA, proteinase inhibitor cocktail), and separated by SDS-PAGE, followed by detecting α-SMA using anti-α-SMA antibody (Sigma) as the primary antibody and anti-mouse IgG antibody (cell signaling) fused with horse radish peroxidase as the secondary antibody.
# [2] = system: α-SMA expression induced by TGFβ2 in cardiac fibroblasts; experiment: Fibrosis inhibition evaluation 2: immunofluorescent staining of α-SMA in cardiac fibroblasts; format: cell-based, rats; conditions: 10 μM, TGFβ2 2 ng/ml, 48 hours, FIG. 8
# Experimental: (§1) In the same manner as in Test Example 5, dermal fibroblasts were isolated from mice, and sterilized cover glass (diameter: 12 mm) was placed in a 12-well plate. On the cover glass, 2.5×10^5 cells were seeded and grown. After 24 hours, the medium was replaced with a medium free of fetal bovine serum, and the cells were cultured for another 24 hours. Separately, cardiac fibroblasts were isolated from 1 to 2-day-old rats and treated in the same manner as for the dermal fibroblasts. Thereafter, 10 ng/ml TGFβ1 was added to the dermal fibroblasts, and 2 ng/ml TGFβ2 was added to the cardiac fibroblasts, followed by culturing the cells for 48 hours. At the same time as TGFβ was added, 10 μM of a test compound (compound 011), 10 μM of Pyr 2 (conventional inhibitor), or DMSO (solvent control) was also added. Separately, cultured cells to which TGFβ-free phosphate buffered saline (PBS) was added were also prepared. […] After blocking with 1% bovine serum albumin, α-SMA was detected using anti-α-SMA antibody (Sigma) as the primary antibody and anti-mouse IgG antibody (Molecular Probes) fused with Alexa 488 as the secondary antibody, and an image was acquired using a fluorescence microscope (Keyence) with a 20× objective lens. The average fluorescence brightness (fluorescence intensity/pixel) per cell area was calculated and analyzed using Image J software.
# dermal fibroblasts = experiment: Fibrosis inhibition evaluation 1: cell morphology observation of dermal fibroblasts; format: cell-based, mice; conditions: dermal fibroblasts cultured 48 hours with TGFβ1
# [3] = system: α-SMA expression induced by TGFβ1 in dermal fibroblasts; experiment: Fibrosis inhibition evaluation 2: immunofluorescent staining of α-SMA in dermal fibroblasts; format: cell-based, mice; conditions: 10 μM, TGFβ1 10 ng/ml, 48 hours, FIG. 7
# Experimental: as §1
# [4] = system: renal interstitial fibrosis caused by unilateral ureteral obstruction; conditions: mice; cited from earlier work
smiles,measurement,setting,value
"Cc1nnsc1C(=O)Nc1ccc(-n2nc(C(F)(F)F)cc2C(F)(F)F)cc1 [Pyr 2, reference compound]",expression of α-SMA induced by TGFβ1 (western blotting),[1],lighter coloration of the α-SMA antibody compared with the control
same,expression of α-SMA induced by TGFβ (immunofluorescent staining),[2],almost completely suppressed the expression of α-SMA
same,cell morphology / cell damage by microscopic observation,dermal fibroblasts,cell elongation
same,expression of α-SMA induced by TGFβ (immunofluorescent staining),[3],almost completely suppressed the expression of α-SMA
same,suppression of renal interstitial fibrosis caused by unilateral ureteral obstruction,[4],suppresses renal interstitial fibrosis caused by unilateral ureteral obstruction
